In PMC10644342, “Improved Antibacterial Activity of 1,3,4-Oxadiazole-Based Compounds That Restrict Staphylococcus aureus Growth Independent of LtaS Function” (ACS Infectious Diseases, 2023):
In brackets after ≈: the same amount, converted by molar mass. Like-named read-outs stand apart in the source and are kept apart here.

Tests used:
S. aureus = assay: MIC, broth microdilution (CLSI); assay type: cell-based, Staphylococcus aureus; conditions: for fold increase in the MIC when compared to 1771: S. aureus and S. epidermidis strains; for MIC: Staphylococcus aureus, read-out: minimum inhibitory concentration
Method: (§1) S. aureus, S. epidermidis, E. faecalis, and E. faecium strains were routinely cultivated on tryptic soy agar (TSA) and grown for 18 h at 37 °C. S. aureus single colonies were subsequently transferred into 2 mL of tryptic soy broth (TSB) and grown for a further 18 h at 37 °C while being shaken at 180 rpm. S. pyogenes, S. agalactiae, and S. dysgalactiae strains were routinely cultured on TSA supplemented with 5% sheep blood and grown for 18 h at 37 °C with 5% CO2. E. coli was grown in LB broth at 37 °C. For LtaS-deficient strains, TSB was supplemented with 0.5 M NaCl to provide an osmotically balanced environment and instead grown at 30 °C. For strains harboring the pRMC2 tetracycline inducible vector,[61] the growth medium was supplemented with 10 μg/mL chloramphenicol and […] anhydrotetracycline hydrochloride (Sigma). Phenylalanine-arginine β-naphthylamide (PAβN) (Sigma) was dissolved in sterile water.
(§2) B. subtilis, staphylococcal, and enterococcal strains were grown in Mueller Hinton broth (MHB), while streptococcal strains were grown in MHB supplemented with 5% laked horse blood. All strains were grown for 18 h at 37 °C. The overnight cultures were subsequently subcultured 1:200 and grown to the exponential phase (OD600nm = 0.5–0.6) in fresh broth. 1771 and its derivatives 9–14 were reconstituted in DMSO and further diluted by performing a 1:2 serial dilution ranging between 256 and 0.125 μg/mL in a 96-well microtiter plate. One hundred microliters of 0.5 McFarland standardized inoculum (approximately equal to 5 × 10^5 cfu) were then dispensed into each well in the 96-well microtiter plate. The plate was incubated for 18 h at 37 °C.

S. epidermidis = assay: MIC, broth microdilution (CLSI); assay type: cell-based, Staphylococcus epidermidis; conditions: Staphylococcus epidermidis, read-out: minimum inhibitory concentration
Method: as §1, §2

S. aureus strain SH1000 = assay: Biofilm prevention, crystal violet assay; assay type: cell-based, Staphylococcus aureus; conditions: for concentration causing a 50% reduction in biofilm formation: SH1000, 24 h; for biofilm prevention compared with 1771: SH1000
Method: (§3) An indication of the biofilm prevention capabilities of 1771 and its derivatives 9–14 was achieved through the application of the crystal violet assay. S. aureus strain SH1000 and S. epidermidis strain RP62A were used, as they are strong biofilm formers. Overnight cultures were diluted 1:200 in fresh TSB containing 0.5% glucose (TSB-G), and 100 μL was added to individual wells in a 96-well microtiter plate. One hundred microliters of 1771 and 9–14 were diluted in TSB-G and added to bacteria at a final concentration ranging from 256 to 0.25 μg/mL with subsequent incubation for 24 h at 37 °C in a static incubator. Following incubation, biofilms were washed four times with ddH2O before being stained with 150 μL of 0.1% crystal violet for 30 min at room temperature. Following a further four washes in ddH2O, wells were resuspended in 200 μL of 7% acetic acid. The absorbance intensity of the crystal violet was measured at abs595nm in a Sunrise plate reader. Biomass formed was measured as a percentage of the no-compound control.

[1] = tested on: S. epidermidis strain RP62A; assay: Biofilm prevention, crystal violet assay; assay type: cell-based, Staphylococcus epidermidis; conditions: for concentration causing a 50% reduction in biofilm formation: 24 h
Method: as §3

LTA = LTA quantification by Western blot; assay type: cell-based, Staphylococcus aureus; conditions: strain LAC, 1× and 4× the MIC
Method: Overnight cultures of S. aureus strains were diluted 1:200 in fresh TSB and grown to an optical density of OD600nm 0.3. […] Vancomycin and daptomycin at 1× and 4× MIC were also included as control antibiotics. Cells were then normalized to have 10 mL of OD600nm 0.6, pelleted at 4000 rpm, and resuspended in 300 μL of PBS containing 200 μg/mL lysostaphin. This suspension was then incubated at 37 °C for 45 min to allow digestion of the cell wall to occur. One hundred microlitres of 4× SDS sample buffer were then added, and the mixture was boiled at 95 °C for 20 min. The insoluble material was then removed by pelleting at 16,000 rpm for 10 min. The supernatant containing LTA was then subjected to SDS-PAGE on a 4–20% Tris-glycine gel (Bio-Rad). The gel was transferred onto a PVDF membrane using a Trans-Blot Turbo Transfer System (Bio-Rad). The membrane was blocked overnight in TBST containing 5% semi-skimmed milk before being incubated with a mouse anti-LTA antibody (Hycult; HM2048; 1:2000 dilution) followed by a goat antimouse-HRP secondary antibody (Proteintech; SA00001; 1:2000 dilution) before being visualized using an Amersham-ECL kit (Cytiva).

HL-60 cell line = conditions: antibiotics used in the training set, Table S2; cited from earlier work

Compound	fold increase in the MIC when compared to 1771 (S. aureus)	MIC (S. aureus; NEWMAN, strain Newman)	MIC (S. aureus; strain EMRSA-15)	MIC (S. aureus; strain LAC)	MIC (S. aureus; strain MRSA252)	MIC (S. aureus; strain MW2)	MIC (S. aureus; strain Mu3)	MIC (S. aureus; strain Mu50)	MIC (S. aureus; strain SH1000)	MIC (S. aureus; strain TW20)	MIC (S. epidermidis; strain 305)	MIC (S. epidermidis; strain 311)	MIC (S. epidermidis; strain 319)	MIC (S. epidermidis; strain 322)	MIC (S. epidermidis; strain 771)	MIC (S. epidermidis; strain 780)	MIC (S. epidermidis; strain RP62A)	concentration causing a 50% reduction in biofilm formation (S. aureus strain SH1000)	concentration causing a 50% reduction in biofilm formation [1]	LTA signal by Western blot (LTA)	further results
COc1ccc2c(ccc3occ(CC(=O)OCC(=O)Nc4nnc(-c5ccccc5)o4)c32)c1 [Compound 9, 2-Oxo-2-((5-phenyl-1,3,4-oxadiazol-2-yl)amino)ethyl 2-(7-Methoxynaphtho[2,1-b]furan-1-yl)acetate]	4- to 16 fold	32 µg/mL (≈ 70 µM)	64 µg/mL (≈ 140 µM)	32 to 64 µg/mL (≈ 70 to 140 µM)	64 µg/mL (≈ 140 µM)	64 µg/mL (≈ 140 µM)	64 µg/mL (≈ 140 µM)	64 µg/mL (≈ 140 µM)	32 µg/mL (≈ 70 µM)	32 µg/mL (≈ 70 µM)	64 µg/mL (≈ 140 µM)	64 µg/mL (≈ 140 µM)	64 µg/mL (≈ 140 µM)	64 µg/mL (≈ 140 µM)	64 µg/mL (≈ 140 µM)	32 µg/mL (≈ 70 µM)	32 µg/mL (≈ 70 µM)	32 to 64 µg/mL	16 to 64 µg/mL		
O=C(COC(=O)Cc1coc2ccc3ccccc3c12)Nc1nnc(-c2cccc(Cl)c2)o1 [Compound 10, 2-((5-(3-Chlorophenyl)-1,3,4-oxadiazol-2-yl)amino)-2-oxoethyl 2-(Naphtho[2,1-b]furan-1-yl)acetate]	4- to 16 fold	64 µg/mL (≈ 139 µM)	32 to 64 µg/mL (≈ 69.3 to 139 µM)	64 µg/mL (≈ 139 µM)	64 µg/mL (≈ 139 µM)	64 µg/mL (≈ 139 µM)	64 µg/mL (≈ 139 µM)	64 µg/mL (≈ 139 µM)	64 µg/mL (≈ 139 µM)	64 µg/mL (≈ 139 µM)	32 to 64 µg/mL (≈ 69.3 to 139 µM)	32 to 64 µg/mL (≈ 69.3 to 139 µM)	64 µg/mL (≈ 139 µM)	64 µg/mL (≈ 139 µM)	32 to 64 µg/mL (≈ 69.3 to 139 µM)	32 to 64 µg/mL (≈ 69.3 to 139 µM)	64 µg/mL (≈ 139 µM)	32 to 64 µg/mL	16 to 64 µg/mL		
COc1ccc2c(ccc3occ(CC(=O)OCC(=O)Nc4nnc(-c5cccc(Cl)c5)o4)c32)c1 [Compound 11, 2-((5-(3-Chlorophenyl)-1,3,4-oxadiazol-2-yl)amino)-2-oxoethyl 2-(7-Methoxynaphtho[2,1-b]furan-1-yl)acetate]		2 µg/mL (≈ 4.07 µM)	2 µg/mL (≈ 4.07 µM)	4 µg/mL (≈ 8.13 µM)	4 µg/mL (≈ 8.13 µM)	2 µg/mL (≈ 4.07 µM)	2 µg/mL (≈ 4.07 µM)	2 µg/mL (≈ 4.07 µM)	2 µg/mL (≈ 4.07 µM)	2 µg/mL (≈ 4.07 µM)	2 to 4 µg/mL (≈ 4.07 to 8.13 µM)	2 µg/mL (≈ 4.07 µM)	2 µg/mL (≈ 4.07 µM)	4 µg/mL (≈ 8.13 µM)	2 µg/mL (≈ 4.07 µM)	4 µg/mL (≈ 8.13 µM)	2 to 4 µg/mL (≈ 4.07 to 8.13 µM)				biofilm prevention compared with 1771 (S. aureus strain SH1000): better than 1771; biofilm prevention compared with 1771 [1]: better than 1771
O=C(COC(=O)Cc1coc2ccc3ccccc3c12)Nc1nnc(-c2ccc(F)cc2)o1 [Compound 12, 2-((5-(4-Fluorophenyl)-1,3,4-oxadiazol-2-yl)amino)-2-oxoethyl 2-(Naphtho[2,1-b]furan-1-yl)acetate]		8 µg/mL (≈ 18 µM)	8 µg/mL (≈ 18 µM)	8 µg/mL (≈ 18 µM)	16 µg/mL (≈ 35.9 µM)	8 µg/mL (≈ 18 µM)	8 µg/mL (≈ 18 µM)	4 to 8 µg/mL (≈ 8.98 to 18 µM)	8 µg/mL (≈ 18 µM)	8 µg/mL (≈ 18 µM)	8 µg/mL (≈ 18 µM)	4 to 8 µg/mL (≈ 8.98 to 18 µM)	4 to 8 µg/mL (≈ 8.98 to 18 µM)	8 µg/mL (≈ 18 µM)	4 to 8 µg/mL (≈ 8.98 to 18 µM)	4 to 8 µg/mL (≈ 8.98 to 18 µM)	4 to 8 µg/mL (≈ 8.98 to 18 µM)				biofilm prevention compared with 1771 (S. aureus strain SH1000): worse than 1771; biofilm prevention compared with 1771 [1]: better
O=C(COC(=O)Cc1coc2ccc3ccccc3c12)Nc1nnc(-c2ccccc2)s1 [Compound 14, 2-Oxo-2-((5-phenyl-1,3,4-thiadiazol-2-yl)amino)ethyl 2-(Naphtho[2,1-b]furan-1-yl)acetate]	4- to 16 fold	> 64 µg/mL	> 64 µg/mL	> 64 µg/mL	> 64 µg/mL	> 64 µg/mL	> 64 µg/mL	> 64 µg/mL	> 64 µg/mL	> 64 µg/mL	> 64 µg/mL	> 64 µg/mL	> 64 µg/mL	> 64 µg/mL	> 64 µg/mL	> 64 µg/mL	> 64 µg/mL	32 to 64 µg/mL	16 to 64 µg/mL		
CCCCCCCCCC(=O)N[C@@H](Cc1c[nH]c2ccccc12)C(=O)N[C@H](CC(N)=O)C(=O)N[C@@H](CC(=O)O)C(=O)N[C@@H]1C(=O)NCC(=O)N[C@@H](CCCN)C(=O)N[C@@H](CC(=O)O)C(=O)N[C@H](C)C(=O)N[C@@H](CC(=O)O)C(=O)NCC(=O)N[C@H](CO)C(=O)N[C@@H]([C@H](C)CC(=O)O)C(=O)N[C@@H](CC(=O)c2ccccc2N)C(=O)O[C@@H]1C [daptomycin]																				No reduction in LTA	
Cc1c(N)cccc1Cn1ccc(OCCc2cccs2)cc1=O [nilofabicin]																				substantial decrease in LTA production	
Oc1cc(Cl)ccc1Oc1ccc(Cl)cc1Cl [triclosan]																				substantial decrease in LTA production	
CN[C@H](CC(C)C)C(=O)N[C@H]1C(=O)N[C@@H](CC(N)=O)C(=O)N[C@H]2C(=O)N[C@H]3C(=O)N[C@H](C(=O)N[C@H](C(=O)O)c4cc(O)cc(O)c4-c4cc3ccc4O)[C@H](O)c3ccc(c(Cl)c3)Oc3cc2cc(c3O[C@@H]2O[C@H](CO)[C@@H](O)[C@H](O)[C@H]2O[C@H]2C[C@](C)(N)[C@H](O)[C@H](C)O2)Oc2ccc(cc2Cl)[C@H]1O [vancomycin]																				No reduction in LTA	Cell health index (CHI) (HL-60 cell line): 0.16
